Measurements taken from patent US11643478B2, “Low-molecular-weight holothurian glycosaminoglycan and use thereof” (Suzhou Yi-hua Biomedical Technology co., Ltd, priority 2019, dated 2023).

Columns and labels:
[1] = test system: xylene inducing murine auricle swelling; test: Xylene inducing murine auricle swelling (anti-inflammation effect); assay type: in vivo; conditions: mice, subcutaneous injection 0.01 mL/1 g for 5 days (LHG 100 mg/mL, dexamethasone 50 mg/mL), 1 h after xylene
Method: Drug preparation: LHG was added in ionized water to obtain 100 mg/mL LHG solution. Positive contrast: dexamethasone was added in ionized water to obtain 50 mg/mL dexamethasone solution. Blank contrast: ionized water.
Administration: sub cutaneous injection.
Experimental process: healthy mice are randomly divided into three groups (six in each group, half male and half female), name as LHG drug group, positive control group and blank control group. Three groups' mice were injected with 0.01 mL/1 g of LHG, dexamethasone and ionized water respectively. Drug was administered continuously for 5 days. 30 μL of xylenes was evenly smeared on both sides of the right ear of the mice to induce inflammation at 30 min after the last administration. The left ear was used as the reference. At 1 h after inducing inflammation, mice were executed by removing cervical vertebra. The ear pieces of the same part in the left and right ears were obtained with a hole punter, then the auricle swelling rate and inhibition rate of auricle swelling were calculated by weighing with an analytical balance.

[2] = test system: rat's learning and memory abilities of scopolamine model; test: Platform jumping test, rat dysmnesia model induced by scopolamine; assay type: in vivo, SD rats; conditions: intragastric for 2 weeks, LHG 30 mg/Kg, Donepezil 1 mg/Kg, scopolamine 5 mg/Kg i.p.
Method: Grouping and dose: blank control group, scopolamine model group (SCOP), positive control group:(Donepezil, 1 mg/Kg), LHG drug group (30 mg/Kg). Administration: intragastric administration. […] Morris training on Day 9 (2 times per day). Morris water maze test and platform jumping test on Day 14. Platform jumping test: Learning and training on the first day, the repeated tests were conducted on the second day. Rats of scopolamine model group, positive control group and LHG drug group were injected with scopolamine hydrobromide through peritoneal cavity (5 mg/Kg) at 20 minutes before the test, while rats of blank control group were injected with equal volume of normal saline through peritoneal cavity. The incubation time of jumping off the platform for the first time (SDL) and the incubation time of avoiding electric shock (EL) were recorded.

[3] = test system: rat's learning and memory abilities of scopolamine model; test: Morris water maze test, rat dysmnesia model induced by scopolamine; assay type: in vivo, SD rats; conditions: intragastric for 2 weeks, LHG 30 mg/Kg, Donepezil 1 mg/Kg; scopolamine i.p.
Method: Grouping and dose: blank control group, scopolamine model group (SCOP), positive control group:(Donepezil, 1 mg/Kg), LHG drug group (30 mg/Kg). Administration: intragastric administration. […] Morris training on Day 9 (2 times per day). Morris water maze test and platform jumping test on Day 14. Modeling method and test of learning and memory: on the day of the test, rats of scopolamine model group, positive control group and LHG drug group were injected with scopolamine hydrobromide through peritoneal cavity (firstly injection dose is 2 mg/Kg for 2 days, then injection dose is 2 mg/Kg on Day 3) at 30 minutes after intragastric administration, while rats of blank control group were injected with equal volume of normal saline through peritoneal cavity. Morris water maze test was conducted at 20 minutes after injection. The route, time and speed of the rats in the 90s were recorded automatically with computer by the camera tracking on the swimming performance of the rats, then the escaping-incubation time of seeking the platform and swimming distance were calculated.

| Structure (SMILES) | Auricle swelling rate [1] | Inhibition rate of auricle swelling [1] [%] | Incubation time of avoiding electric shock ([2]; EL) [s] | Incubation time of jumping off the platform for the first time ([2]; SDL) [s] | Escaping-incubation time [3] [s] | Swimming distance (cm) [3] [cm] |
| --- | --- | --- | --- | --- | --- | --- |
| C[C@@H]1C[C@H]2[C@@H]3CCC4=CC(=O)C=C[C@]4(C)[C@@]3(F)[C@@H](O)C[C@]2(C)[C@@]1(O)C(=O)CO [dexamethasone] | 102.9% ± 11.3% | 24.6 |  |  |  |  |
| COc1cc2c(cc1OC)C(=O)C(CC1CCN(Cc3ccccc3)CC1)C2 (stereo not drawn) [Donepezil] |  |  | 115.28 ± 17.54 | 48.75 ± 9.84 | 37.20 ± 12.72 | 1652.25 ± 295.02 |
